Experimental data as given in publication PMC10916743 (RSC Advances, 2024).
Values joined by “and” are separate entries in the source; they are usually repeats but may differ in a detail not shown here. Equal values may be shown once.

Key:
HepG2 cell line = assay: MTT cytotoxicity assay, HepG2; format: cell-based; details: for IC50: Homo sapiens, HepG2, read-out: IC50 HepG2; for Selectivity index: fold more toxic against HepG2 than VERO cells: VERO IC50 / HepG2 IC50
MCF-7 cell line = assay: MTT cytotoxicity assay, MCF-7; format: cell-based; details: for IC50: Homo sapiens, MCF7, read-out: IC50 MCF-7; for Selectivity index: fold more toxic in MCF-7 than in VERO cells: VERO IC50 / MCF-7 IC50
HCT116 cell line = assay: MTT cytotoxicity assay, HCT116; format: cell-based; details: for IC50: Homo sapiens, HCT-116, read-out: IC50 HCT116; for Selectivity index: fold grander lethalness in HCT116 than in VERO cells: VERO IC50 / HCT116 IC50
A549 cell line = assay: MTT cytotoxicity assay, A549; format: cell-based; details: for IC50: Homo sapiens, A549, read-out: IC50 A549; for Selectivity index: fold more toxicity in A549 than in VERO cells: VERO IC50 / A549 IC50
EGFR^WT = EGFR^WT (Homo sapiens, UniProt P00533); assay: In vitro EGFR^WT kinase inhibitory assay; format: biochemical; details: mean ± SD of three separate experiments
Sequence of EGFR^WT (P00533 25-1210): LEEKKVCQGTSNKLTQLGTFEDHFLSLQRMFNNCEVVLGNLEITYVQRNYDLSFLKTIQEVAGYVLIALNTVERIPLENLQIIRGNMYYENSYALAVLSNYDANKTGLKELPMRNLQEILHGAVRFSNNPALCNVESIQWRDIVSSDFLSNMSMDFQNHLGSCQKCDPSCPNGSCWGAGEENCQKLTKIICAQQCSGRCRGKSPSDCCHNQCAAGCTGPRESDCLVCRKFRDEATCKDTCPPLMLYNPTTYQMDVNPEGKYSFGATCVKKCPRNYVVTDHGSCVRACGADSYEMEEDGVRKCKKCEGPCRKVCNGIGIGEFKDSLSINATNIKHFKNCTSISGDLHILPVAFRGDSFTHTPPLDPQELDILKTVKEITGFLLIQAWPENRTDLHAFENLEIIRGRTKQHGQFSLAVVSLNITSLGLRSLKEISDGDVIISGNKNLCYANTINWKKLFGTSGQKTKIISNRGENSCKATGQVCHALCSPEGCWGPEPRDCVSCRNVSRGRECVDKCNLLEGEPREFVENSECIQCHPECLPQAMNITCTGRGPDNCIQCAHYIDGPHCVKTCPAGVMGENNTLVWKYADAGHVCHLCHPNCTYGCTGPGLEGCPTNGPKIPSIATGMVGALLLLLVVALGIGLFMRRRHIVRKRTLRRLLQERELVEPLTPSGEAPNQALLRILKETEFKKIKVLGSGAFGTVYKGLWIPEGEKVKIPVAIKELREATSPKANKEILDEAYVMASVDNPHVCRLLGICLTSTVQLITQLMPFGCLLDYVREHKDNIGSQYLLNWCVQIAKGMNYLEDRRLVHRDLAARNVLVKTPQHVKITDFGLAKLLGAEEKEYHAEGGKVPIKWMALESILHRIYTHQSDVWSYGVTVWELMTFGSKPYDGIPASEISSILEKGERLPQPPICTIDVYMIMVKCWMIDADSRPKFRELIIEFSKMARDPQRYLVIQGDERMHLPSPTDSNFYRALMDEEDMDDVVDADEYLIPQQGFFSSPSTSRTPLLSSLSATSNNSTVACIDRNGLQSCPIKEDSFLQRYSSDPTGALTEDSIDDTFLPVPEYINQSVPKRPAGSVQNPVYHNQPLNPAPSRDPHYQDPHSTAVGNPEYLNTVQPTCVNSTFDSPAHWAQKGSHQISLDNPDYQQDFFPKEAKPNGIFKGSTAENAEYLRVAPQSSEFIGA

EGFR^T790M = EGFR^T790M (Homo sapiens, UniProt P00533, T790M); assay: In vitro EGFR^T790M kinase inhibitory assay; format: biochemical; details: HTRF kinase assay, mean ± SD of three separate experiments
Sequence of EGFR^T790M (P00533 25-1210 T790M): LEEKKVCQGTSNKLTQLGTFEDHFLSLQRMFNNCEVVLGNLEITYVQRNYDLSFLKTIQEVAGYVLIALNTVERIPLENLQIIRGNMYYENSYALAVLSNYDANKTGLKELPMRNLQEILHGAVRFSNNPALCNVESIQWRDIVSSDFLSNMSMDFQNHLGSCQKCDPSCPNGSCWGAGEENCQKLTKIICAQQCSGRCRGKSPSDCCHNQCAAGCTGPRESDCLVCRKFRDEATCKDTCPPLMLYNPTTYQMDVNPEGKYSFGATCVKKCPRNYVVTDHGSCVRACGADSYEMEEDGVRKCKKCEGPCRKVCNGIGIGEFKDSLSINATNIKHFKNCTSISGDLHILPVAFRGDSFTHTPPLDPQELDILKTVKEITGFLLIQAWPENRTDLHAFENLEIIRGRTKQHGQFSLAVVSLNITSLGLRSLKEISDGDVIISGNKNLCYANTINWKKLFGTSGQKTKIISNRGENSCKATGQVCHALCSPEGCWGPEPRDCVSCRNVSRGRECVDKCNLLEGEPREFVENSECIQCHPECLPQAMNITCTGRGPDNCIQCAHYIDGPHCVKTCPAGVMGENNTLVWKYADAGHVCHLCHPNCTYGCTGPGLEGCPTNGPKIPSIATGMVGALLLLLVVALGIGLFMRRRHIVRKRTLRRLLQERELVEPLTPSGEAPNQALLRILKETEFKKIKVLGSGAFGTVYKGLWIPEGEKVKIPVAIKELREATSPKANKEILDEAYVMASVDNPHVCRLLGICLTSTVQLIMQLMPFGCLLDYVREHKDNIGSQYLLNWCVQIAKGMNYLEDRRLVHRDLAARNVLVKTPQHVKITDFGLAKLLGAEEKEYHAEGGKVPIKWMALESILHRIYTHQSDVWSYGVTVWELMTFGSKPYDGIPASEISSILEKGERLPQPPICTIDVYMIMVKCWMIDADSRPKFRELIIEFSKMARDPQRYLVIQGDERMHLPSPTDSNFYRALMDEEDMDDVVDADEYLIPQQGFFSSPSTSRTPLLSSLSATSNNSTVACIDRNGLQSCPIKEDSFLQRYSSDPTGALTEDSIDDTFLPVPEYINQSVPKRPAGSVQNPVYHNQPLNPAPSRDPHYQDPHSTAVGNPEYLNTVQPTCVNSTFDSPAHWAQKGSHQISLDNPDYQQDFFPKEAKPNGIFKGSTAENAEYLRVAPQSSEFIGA

| Structure (SMILES) | IC50 (HepG2 cell line) [µM] | IC50 (MCF-7 cell line) [µM] | IC50 (HCT116 cell line) [µM] | IC50 (A549 cell line) [µM] | IC50 (EGFR^WT) [µM] | IC50 (EGFR^T790M) | Selectivity index: fold more toxic against HepG2 than VERO cells (HepG2 cell line) [fold] | Selectivity index: fold more toxic in MCF-7 than in VERO cells (MCF-7 cell line) [fold] | Selectivity index: fold grander lethalness in HCT116 than in VERO cells (HCT116 cell line) [fold] | Selectivity index: fold more toxicity in A549 than in VERO cells (A549 cell line) [fold] |
| --- | --- | --- | --- | --- | --- | --- | --- | --- | --- | --- |
| C=CCn1c(=O)n(CC(=O)Nc2ccc(C(=O)NC)cc2)c(=O)c2cc(I)ccc21 [Compound 5a, 4-{2-[1-Allyl-6-iodo-2,4-dioxo-1,4-dihydroquinazolin-3(2H)-yl]acetamido}-N-methylbenzamide] | 15 ± 1.5 | 13.2 ± 1 | 13.4 ± 1.5 | 10.6 ± 1.5 | 1.32 ± 0.25 | 1.62 ± 0.2 µM |  |  |  |  |
| C=CCn1c(=O)n(CC(=O)Nc2ccc(C(=O)NCC)cc2)c(=O)c2cc(I)ccc21 [Compound 5b, 4-{2-[1-Allyl-6-iodo-2,4-dioxo-1,4-dihydroquinazolin-3(2H)-yl]acetamido}-N-ethylbenzamide] | 12.5 ± 1 | 11.3 ± 1.1 | 11 ± 1.3 | 9.5 ± 1.5 | 1 ± 0.15 | 1.33 ± 0.1 µM |  |  |  |  |
| C=CCn1c(=O)n(CC(=O)Nc2ccc(C(=O)OC)cc2)c(=O)c2cc(I)ccc21 [Compound 6a, Methyl 4-{2-[1-allyl-6-iodo-2,4-dioxo-1,4-dihydroquinazolin-3(2H)-yl]acetamido}benzoate] | 13 ± 1.4 | 12.2 ± 1.7 | 12.1 ± 1.5 | 10.4 ± 1.5 | 1.15 ± 0.25 | 1.54 ± 0.5 µM |  |  |  |  |
| C=CCn1c(=O)n(CC(=O)Nc2ccc(C(=O)OCC)cc2)c(=O)c2cc(I)ccc21 [Compound 6b, Ethyl 4-{2-[1-allyl-6-iodo-2,4-dioxo-1,4-dihydroquinazolin-3(2H)-yl]acetamido}benzoate] | 11.6 ± 1.8 | 11 ± 1.6 | 9.79 ± 1.8 | 9.39 ± 1.5 | 0.95 ± 0.35 | 1.12 ± 0.5 µM |  |  |  |  |
| C=CCn1c(=O)n(CC(=O)Nc2ccc(C(=O)NN)cc2)c(=O)c2cc(I)ccc21 [Compound 7, 2-[1-Allyl-6-iodo-2,4-dioxo-1,4-dihydroquinazolin-3(2H)-yl]-N-[4-(hydrazinecarbonyl)phenyl]acetamide] | 16.5 ± 1.6 | 15.2 ± 1.9 | 15.2 ± 1.7 | 12.2 ± 1.5 | 1.5 ± 0.15 | 1.9 ± 0.5 µM |  |  |  |  |
| C=CCn1c(=O)n(CC(=O)Nc2ccc(-c3nnc(S)o3)cc2)c(=O)c2cc(I)ccc21 [Compound 8, 2-(1-Allyl-6-iodo-2,4-dioxo-1,4-dihydroquinazolin-3(2H)-yl)-N-(4-(5-mercapto-1,3,4-oxadiazol-2-yl)phenyl)acetamide] | 11.2 ± 1.9 | 10.8 ± 1.8 | 9.31 ± 1.8 | 9 ± 1.5 | 0.88 ± 0.35 | 0.96 ± 0.5 µM |  |  |  |  |
| C=CCn1c(=O)n(CC(=O)Nc2ccc(-c3nnc(C)o3)cc2)c(=O)c2cc(I)ccc21 [Compound 9, 2-[1-Allyl-6-iodo-2,4-dioxo-1,4-dihydroquinazolin-3(2H)-yl]-N-[4-(5-methyl-1,3,4-oxadiazol-2-yl)phenyl]acetamide] | 11 ± 1.4 | 10.4 ± 1.7 | 8.62 ± 1.5 | 7.06 ± 1.5 | 0.8 ± 0.25 | 0.89 ± 0.5 µM |  |  |  |  |
| C=CCn1c(=O)n(CC(=O)Nc2ccc(-n3nc(C)cc3C)cc2)c(=O)c2cc(I)ccc21 [Compound 10, 2-[1-Allyl-6-iodo-2,4-dioxo-1,4-dihydroquinazolin-3(2H)-yl]-N-[4-(3,5-dimethyl-1H-pyrazol-1-yl)phenyl]acetamide] | 7.35 ± 1 | 7.85 ± 0.9 | 6.96 ± 1.1 | 6.9 ± 1.5 | 0.38 ± 0.35 | 0.54 ± 0.5 µM | 5.91 | 5.53 | 6.24 | 6.30 |
| CNC(=O)c1ccc(NC(=O)Cn2c(=O)c3cc(I)ccc3n(Cc3ccccc3)c2=O)cc1 [Compound 13, 4-{2-[1-Benzyl-6-iodo-2,4-dioxo-1,4-dihydroquinazolin-3(2H)-yl]acetamido}-N-methylbenzamide] | 8 ± 1.3 | 8.25 ± 1.1 | 7.36 ± 1.1 | 7.1 ± 1.1 | 0.5 ± 0.15 | 0.61 ± 0.1 µM | 5.86 | 5.68 | 6.37 | 6.60 |
| COC(=O)c1ccc(NC(=O)Cn2c(=O)c3cc(I)ccc3n(Cc3ccccc3)c2=O)cc1 [Compound 14a, Methyl 4-{2-[1-benzyl-6-iodo-2,4-dioxo-1,4-dihydroquinazolin-3(2H)-yl]acetamido}benzoate] | 9 ± 1.2 | 8.35 ± 1.5 | 8.5 ± 1.1 | 7.87 ± 1.1 | 0.6 ± 0.35 | 0.75 ± 0.5 µM | 5.58 | 6.01 | 5.91 | 6.38 |
| CCOC(=O)c1ccc(NC(=O)Cn2c(=O)c3cc(I)ccc3n(Cc3ccccc3)c2=O)cc1 [Compound 14b, Ethyl 4-{2-[1-benzyl-6-iodo-2,4-dioxo-1,4-dihydroquinazolin-3(2H)-yl]acetamido}benzoate] | 5.86 ± 1 | 7.03 ± 1.1 | 6.15 ± 1.5 | 5.77 ± 1.3 | 0.25 ± 0.35 | 0.36 ± 0.1 µM | 8.39 | 6.99 | 7.99 | 8.52 |
| NNC(=O)c1ccc(NC(=O)Cn2c(=O)c3cc(I)ccc3n(Cc3ccccc3)c2=O)cc1 [Compound 15, 2-[1-Benzyl-6-iodo-2,4-dioxo-1,4-dihydroquinazolin-3(2H)-yl]-N-[4-(hydrazinecarbonyl)phenyl]acetamide] | 9.5 ± 1 | 8.8 ± 1 | 8.95 ± 1 | 8.18 ± 1 | 0.65 ± 0.15 | 0.8 ± 0.1 µM | 5.49 | 5.92 | 5.82 | 6.37 |
| O=C(Cn1c(=O)c2cc(I)ccc2n(Cc2ccccc2)c1=O)Nc1ccc(-c2nnc(S)o2)cc1 [Compound 16, 2-[1-Benzyl-6-iodo-2,4-dioxo-1,4-dihydroquinazolin-3(2H)-yl]-N-[4-(5-mercapto-1,3,4-oxadiazol-2-yl)phenyl]acetamide] | 6.54 ± 1 | 7.36 ± 1 | 6.67 ± 1 | 6.2 ± 1 | 0.33 ± 0.25 | 0.4 µM and 0.43 µM | 6.69 | 5.95 | 6.56 | 7.06 |
| Cc1nnc(-c2ccc(NC(=O)Cn3c(=O)c4cc(I)ccc4n(Cc4ccccc4)c3=O)cc2)o1 [Compound 17, 2-[1-Benzyl-6-iodo-2,4-dioxo-1,4-dihydroquinazolin-3(2H)-yl]-N-[4-(5-methyl-1,3,4-oxadiazol-2-yl)phenyl]acetamide] | 5.55 ± 0.7 | 6.85 ± 0.9 | 5.4 ± 1.5 | 5.11 ± 1.1 | 0.15 ± 0.35 | 0.3 ± 0.5 µM | 8.31 | 6.73 |  |  |
| Cc1cc(C)n(-c2ccc(NC(=O)Cn3c(=O)c4cc(I)ccc4n(Cc4ccccc4)c3=O)cc2)n1 [Compound 18, 2-[1-Benzyl-6-iodo-2,4-dioxo-1,4-dihydroquinazolin-3(2H)-yl]-N-[4-(3,5-dimethyl-1H-pyrazol-1-yl)phenyl]acetamide] | 5.25 ± 0.7 | 6.46 ± 0.9 | 5.68 ± 1.5 | 5.24 ± 1.1 | 0.17 ± 0.35 | 0.25 ± 0.5 µM | 8.67 | 7.04 |  |  |
